Some test systems named below: CAKI-1; CCRF-CEM; COLO 205; HCT-15; HL-60; HOP-62; HOP-92; IGROV-1; Malme-3M; NCI-H23; NCI-H460; NCI-H522; OVCAR-3; OVCAR-4; RPMI-8226; SF-268; SK-MEL-5; SW-620; U-251; UACC-62.
What all share (experiment): inhibition of tumour cell growth, NCI panel, 48 h

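Growth conditions: 96-well plates. Treatment: test compound, 48 hours, 5 concentrations. Analysis: linear interpolation between bracketing concentrations; unreached endpoints set to highest concentration. The concentration for 50% growth inhibition is given as GI50.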 Calls of active or inactive are those of the source. Rule as the data show it: active = GI50 up to about 1.1 µM and inactive = higher.

Turning to `O=NN(CCCl)C(=O)N[C@H]1CC[C@@H](O)CC1`, the GI50 in the experiment on CAKI-1 is 27.5 µM (inactive); in the experiment on CCRF-CEM it was 12.8 µM (inactive); in the experiment with COLO 205, 24.4 µM (inactive); with HCT-15 it was 21.6 µM; in the experiment on HL-60, 18.2 µM (inactive); in the experiment with HOP-62, 46.3 µM (inactive). In addition, the GI50 with HOP-92 is 8.43 µM (inactive); with IGROV-1, 68.4 µM (inactive); in the experiment with Malme-3M, 24.8 µM (inactive); in the experiment on NCI-H23, 39.5 µM (inactive); in the experiment on NCI-H460, 28.3 µM (inactive); in the experiment on NCI-H522, 20.8 µM (inactive). Further, the GI50 in the experiment with OVCAR-3 was 33.2 µM (inactive); in the experiment on OVCAR-4, 60.4 µM (inactive); in the experiment with RPMI-8226 it was 14 µM (inactive); in the experiment on SF-268 it was 13.6 µM (inactive); in the experiment with SK-MEL-5 it was 52.4 µM (inactive); in the experiment with SW-620, 22.6 µM (inactive). Besides, the GI50 in the experiment on U-251 is 20.6 µM (inactive); in the experiment with UACC-62, 13 µM (inactive).

With `CCN1CCCC(NCc2c3ccccc3c(CNC3CCCN(CC)C3)c3ccccc23)C1` (stereo not given), the GI50 is 16.1 µM (inactive) with CAKI-1; 3.34 µM (inactive) in the experiment on CCRF-CEM; 1.99 µM (inactive) in the experiment on COLO 205; 12.5 µM in the experiment on HCT-15; 7.03 µM (inactive) with HL-60; 19.6 µM (inactive) in the experiment on HOP-62. The GI50 was 11.1 µM (inactive) in the experiment with HOP-92; 16.2 µM (inactive) with IGROV-1; 21.6 µM (inactive) with Malme-3M; 15.6 µM (inactive) with NCI-H23; 3.65 µM (inactive) with NCI-H460; 2.49 µM (inactive) with NCI-H522. The GI50 in the experiment on OVCAR-3 is 3.8 µM (inactive); in the experiment with OVCAR-4, 5.2 µM (inactive); with RPMI-8226 it was 10.2 µM (inactive); in the experiment on SF-268, 7.8 µM (inactive); in the experiment on SK-MEL-5, 14.1 µM (inactive); with SW-620 it was 4.04 µM (inactive). Besides, the GI50 in the experiment with U-251 was 11.8 µM (inactive); in the experiment with UACC-62, 12.9 µM (inactive).

`CCCCS(=N)(=O)CC[C@H](N)C(=O)O` (stereo not given in full) [BUTHIONINE SULFOXIME]: the GI50 is 3400 µM (inactive) in the experiment with CAKI-1; 1040 µM (inactive) in the experiment with CCRF-CEM; > 5000 µM (inactive) with COLO 205; 4250 µM in the experiment on HCT-15; 665 µM (inactive) in the experiment with HL-60; > 5000 µM (inactive) with HOP-62. Moreover, the GI50 in the experiment with HOP-92 was 171 µM (inactive); with IGROV-1, 2110 µM (inactive); in the experiment with Malme-3M it was > 5000 µM (inactive); in the experiment with NCI-H23, 3420 µM (inactive); in the experiment with NCI-H460, 4730 µM (inactive); in the experiment on NCI-H522, 140 µM (inactive). The GI50 in the experiment with OVCAR-3 was > 4130 µM (inactive); in the experiment on OVCAR-4, 2290 µM (inactive); in the experiment on RPMI-8226 it was 2460 µM (inactive); in the experiment with SF-268, 4260 µM (inactive); in the experiment on SK-MEL-5, > 5000 µM (inactive); with SW-620, > 5000 µM (inactive). The GI50 in the experiment with U-251 and in the experiment with UACC-62 was > 5000 µM (inactive) throughout.

The record behind these values is ChEMBL document CHEMBL1201862, “PubChem BioAssay data set” (2004).
